By IC50 is commonly meant the concentration at which inhibition is half-maximal.

IC50 and Emax data for 20 molecules are collected here from patent publication US20180338980A1, “AROMATIC SULFONAMIDE DERIVATIVES” (BAYER PHARMA AKTIENGESELLSCHAFT, priority 2015, published 2018).

The structures appear in SMILES notation.

In experiment [1] the target is T1, P2X4 (Homo sapiens, UniProt Q99571).
T1 sequence (Q99571 1-388): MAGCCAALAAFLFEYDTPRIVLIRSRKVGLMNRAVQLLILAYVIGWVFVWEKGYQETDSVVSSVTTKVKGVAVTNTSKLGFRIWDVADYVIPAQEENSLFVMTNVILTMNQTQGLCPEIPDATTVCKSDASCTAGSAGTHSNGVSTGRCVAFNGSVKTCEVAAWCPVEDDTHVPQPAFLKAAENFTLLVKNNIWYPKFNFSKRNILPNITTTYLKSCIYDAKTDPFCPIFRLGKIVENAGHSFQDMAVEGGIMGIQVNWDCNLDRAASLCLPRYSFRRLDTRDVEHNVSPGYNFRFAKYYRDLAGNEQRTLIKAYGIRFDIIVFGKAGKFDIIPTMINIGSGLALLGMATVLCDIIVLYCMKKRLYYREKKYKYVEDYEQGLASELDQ
In words: Assay B: human P2X4 receptor cell line, mitochondrial photina luminescence (agonist Bz-ATP at EC50). Format: cell-based. The conditions noted are these: HEK human P2X4 cell line, photina luminescence, agonist Bz-ATP at EC50, average; for Emax: read-out: human P2X4 Assay B avg Efficacy. More on the design: host or cells: HEK 293 (recombinant, constitutively expressing; with mitochondrial photina in Assay B). Put shortly:
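Bz-ATP at its EC50 activates human P2X4 stably expressed in a cell line that also carries the calcium-sensitive photoprotein mitochondrial photina (coelenterazine cofactor). Light emitted on calcium influx is measured straight away in a luminometer. Reduced luminescence indicates antagonism.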

The target in experiment [2] is T1, P2X4. Nature of the experiment: Assay A: human P2X4 receptor cell line, FLIPR calcium assay (Fluo-8, agonist Bz-ATP at EC80). Format: cell-based. The conditions noted are these: HEK human P2X4 cells, Fluo-8 FLIPR; for IC50: Bz-ATP at EC80, average values; for Emax: percentage of maximal inhibition, read-out: human P2X4 Assay A avg Efficacy. Further details: host or cells: HEK 293 (recombinant, constitutively expressing; with mitochondrial photina in Assay B). An outline of the steps:
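Antagonism read as inhibition of the calcium response to EC80 Bz-ATP, by peak-over-basal Fluo-8 fluorescence over 120 s, normalized to DMSO wells. Human P2X4-HEK cells, dye-loaded 30 min in probenecid-containing HBSS/HEPES pH 7.4, received compound 30 min beforehand at room temperature, 0.5% DMSO final. Triplicates fitted for IC50, maximal inhibition and Hill slope.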

As for `NS(=O)(=O)c1cc(NC(=O)Cc2ccccc2Cl)ccc1Oc1cccc(OC(F)(F)F)c1` [Example 006, 2-(2-Chlorophenyl)-N-{3-sulfamoyl-4-[3-(trifluoromethoxy)phenoxy]phenyl}acetamide], at P2X4 [1], the IC50 worked out at 73 nM and the Emax worked out at 108%. Also, on P2X4 [2], the IC50 is 99 nM and the Emax was 87%.

Consider `NS(=O)(=O)c1cc(NC(=O)Cc2ccccc2Cl)ccc1Oc1cccc(C(F)F)c1` [Example 031, 2-(2-Chlorophenyl)-N-{4-[3-(difluoromethyl)phenoxy]-3-sulfamoylphenyl}acetamide], for which, on P2X4 [1], the half-inhibitory concentration (IC50) stood at 122 nM and the Emax came out at 71%. Also, at P2X4 [2], the IC50 was 24 nM and the Emax amounted to 76%.

Consider `N#Cc1ccc(CC(=O)Nc2ccc(Oc3cccc(Cl)c3)c(S(N)(=O)=O)c2)cc1` [Example 224, N-[4-(3-Chlorophenoxy)-3-sulfamoylphenyl]-2-(4-cyanophenyl)acetamide], for which the IC50 at P2X4 [1] came out at 623 nM; at P2X4 [2], 345 nM. The Emax on P2X4 [1] is 61%; at P2X4 [2], 78%.

`Cc1nc(-c2cccc(Oc3ccc(NC(=O)Cc4ccccc4Cl)cc3S(N)(=O)=O)c2)cs1` [Example 061, 2-(2-Chlorophenyl)-N-{4-[3-(2-methyl-1,3-thiazol-4-yl)phenoxy]-3-sulfamoylphenyl}acetamide]: on P2X4 [1], the IC50 is 147 nM and the Emax was determined as 72%. Moreover, on P2X4 [2], the IC50 turned out to be 53 nM and the Emax is 88%.

For `COc1cccc(COc2ccc(NC(=O)Cc3ccccc3Cl)cc2S(N)(=O)=O)c1` [Example 140, 2-(2-Chlorophenyl)-N-{4-[(3-methoxybenzyl)oxy]-3-sulfamoylphenyl}acetamide], on P2X4 [1], the IC50 is 44 nM and the Emax was found to be 67%. In addition, at P2X4 [2], the IC50 was 8 nM and the Emax is 103%.

On to `Cc1c(Br)ccc(Cl)c1CC(=O)Nc1ccc(Oc2cccc(Cl)c2)c(S(N)(=O)=O)c1` [Example 133, 2-(3-Bromo-6-chloro-2-methylphenyl)-N-[4-(3-chlorophenoxy)-3-sulfamoylphenyl]acetamide], for which the half-maximal inhibitory concentration (IC50) on P2X4 [1] came to 4100 nM; at P2X4 [2], 375 nM. Besides, the results for the Emax on P2X4 [1] and at P2X4 [2] were 92% and 75%, respectively.

In the case of `CN(C)c1cccc(Oc2ccc(NC(=O)Cc3ccccc3Cl)cc2S(N)(=O)=O)c1` [Example 002, 2-(2-Chlorophenyl)-N-{4-[3-(dimethylamino)phenoxy]-3-sulfamoylphenyl}acetamide], the IC50 at P2X4 [1] turned out to be 79 nM; on P2X4 [2] it was 29 nM. Further, the Emax at P2X4 [1] came out at 81%; on P2X4 [2], 96%.

For the molecule `NS(=O)(=O)c1cc(NC(=O)Cc2ccccc2)cnc1Oc1cccc(C(F)(F)F)c1` [Example 169, 2-Phenyl-N-{5-sulfamoyl-6-[3-(trifluoromethyl)phenoxy]pyridin-3-yl}acetamide], at P2X4 [1], the IC50 amounted to 1030 nM and the Emax is 75%. For the same molecule, at P2X4 [2], the IC50 is 274 nM and the Emax was 74%.

As for `NS(=O)(=O)c1cc(NC(=O)Cc2ccccc2Cl)ccc1Oc1ccc(N2CCOCC2=O)cc1` [Example 174, 2-(2-Chlorophenyl)-N-{4-[4-(3-oxomorpholin-4-yl)phenoxy]-3-sulfamoylphenyl}acetamide], the Emax stood at 64% at P2X4 [1] and 74% on P2X4 [2].

Take `NS(=O)(=O)c1cc(NC(=O)Cc2c(F)ccc(F)c2Cl)ccc1Oc1cccc(Cl)c1` [Example 122, 2-(2-Chloro-3,6-difluorophenyl)-N-[4-(3-chlorophenoxy)-3-sulfamoylphenyl]acetamide]: the IC50 at P2X4 [1] came out at 105 nM; on P2X4 [2] it was 26 nM. In addition, the Emax is 54% on P2X4 [1] and 83% at P2X4 [2].

Regarding `NS(=O)(=O)c1cc(NC(=O)Cc2ccccc2Cl)ccc1Oc1cccc(OC(F)F)c1` [Example 024, 2-(2-Chlorophenyl)-N-{4-[3-(difluoromethoxy)phenoxy]-3-sulfamoylphenyl}acetamide], on P2X4 [1], the IC50 was 32 nM and the Emax amounted to 57%. Further, at P2X4 [2], the IC50 stood at 114 nM and the Emax is 82%.

On to `NS(=O)(=O)c1cc(NC(=O)Cc2ccccc2Cl)ccc1Oc1cccc(C(F)(F)F)c1` [Example 005, 2-(2-Chlorophenyl)-N-{3-sulfamoyl-4-[3-(trifluoromethyl)phenoxy]phenyl}acetamide], for which the IC50 at P2X4 [1] was found to be 90 nM; at P2X4 [2] it was 77 nM. The Emax on P2X4 [1] was determined as 89%; on P2X4 [2], 94%.

Consider `NS(=O)(=O)c1cc(NC(=O)Cc2ccc(Cl)cc2Cl)ccc1Oc1cccc(Cl)c1` [Example 110, N-[4-(3-Chlorophenoxy)-3-sulfamoylphenyl]-2-(2,4-dichlorophenyl)acetamide], for which, at P2X4 [1], the IC50 was found to be 159 nM and the Emax is 37%. On P2X4 [2], the IC50 came out at 254 nM and the Emax is 79%.

Consider `C=C(C)c1cccc(Oc2ccc(NC(=O)Cc3ccccc3Cl)cc2S(N)(=O)=O)c1` [Example 177, 2-(2-Chlorophenyl)-N-{4-[3-(prop-1-en-2-yl)phenoxy]-3-sulfamoylphenyl}acetamide], for which the IC50 on P2X4 [1] is 970 nM; on P2X4 [2], 265 nM. For the same molecule, the Emax was 69% on P2X4 [1] and 80% on P2X4 [2].

As for `COc1ccccc1CC(=O)Nc1ccc(Oc2cccc(Cl)c2)c(S(N)(=O)=O)c1` [Example 192, N-[4-(3-Chlorophenoxy)-3-sulfamoylphenyl]-2-(2-methoxyphenyl)acetamide], the figures for the Emax on P2X4 [1] and at P2X4 [2] were 68% and 86%, respectively.

As to `NS(=O)(=O)c1cc(NC(=O)Cc2ccccc2Cl)ccc1Oc1cccnc1` [Example 028, 2-(2-Chlorophenyl)-N-[4-(pyridin-3-yloxy)-3-sulfamoylphenyl]acetamide], the results for the Emax at P2X4 [1] and at P2X4 [2] were 79% and 75%, respectively.

Regarding `COc1cccc(Cl)c1CC(=O)Nc1ccc(Oc2cccc(Cl)c2)c(S(N)(=O)=O)c1` [Example 101, 2-(2-Chloro-6-methoxyphenyl)-N-[4-(3-chlorophenoxy)-3-sulfamoylphenyl]acetamide], the results for the IC50 at P2X4 [1] and on P2X4 [2] were 59 nM and 38 nM, respectively. The results for the Emax on P2X4 [1] and on P2X4 [2] were 69% and 97%, respectively.

As to `NS(=O)(=O)c1cc(NC(=O)Cc2ccccc2OC(F)F)ccc1Oc1cccc(Cl)c1` [Example 113, N-[4-(3-Chlorophenoxy)-3-sulfamoylphenyl]-2-[2-(difluoromethoxy)phenyl]acetamide], on P2X4 [1], the IC50 stood at 239 nM and the Emax came out at 73%. Also, on P2X4 [2], the IC50 is 173 nM and the Emax is 88%.

Take `C=C(C)c1ccccc1Oc1ccc(NC(=O)Cc2ccccc2Cl)cc1S(N)(=O)=O` [Example 178, 2-(2-Chlorophenyl)-N-{4-[2-(prop-1-en-2-yl)phenoxy]-3-sulfamoylphenyl}acetamide]: on P2X4 [1], the IC50 was determined as 490 nM and the Emax came to 56%. Also, on P2X4 [2], the IC50 turned out to be 392 nM and the Emax amounted to 76%.

Take `NS(=O)(=O)c1cc(NC(=O)Cc2ccccc2Cl)ccc1Oc1cccc(N2CCOCC2)c1` [Example 026, 2-(2-Chlorophenyl)-N-{4-[3-(morpholin-4-yl)phenoxy]-3-sulfamoylphenyl}acetamide]: at P2X4 [1], the IC50 was found to be 82 nM and the Emax worked out at 71%. In addition, on P2X4 [2], the IC50 is 21 nM and the Emax was 95%.
